These results are taken from ChEMBL document CHEMBL3585294, “LAT Transport Inhibitors from Pittosporum venulosum Identified by NMR Fingerprint Analysis” (J Nat Prod, 2015).

The term IC50 denotes the point on the concentration scale where inhibition reaches its midpoint.

Each structure is given as a SMILES string.

The assay can be described thus: Inhibition of LAT in human LNCAP cells assessed as inhibition of [3H]-L-leucine transport by liquid scintillation counting analysis. In kind it is cell-based.

On to `NC1(C(=O)O)CC2CCC1C2` (stereo not given), for which the IC50 is 4060 µM.
Consider `CC(=O)O[C@H]1[C@H](OC(C)(C)[C@H]2CC=C(C)CC2)O[C@H](C)[C@H](O)[C@@H]1OC(=O)C=C(C)C`, for which the 50% inhibitory concentration (IC50) is 8.12 µM.
For the molecule `C/C=C(/C)C(=O)O[C@H]1[C@@H](O)[C@@H](C)O[C@@H](OC(C)(C)[C@H]2CC=C(C)CC2)[C@@H]1OC(C)=O`, the half-maximal inhibitory concentration (IC50) turned out to be 29.2 µM.
For `CC[C@H](C)C(=O)O[C@H]1[C@@H](O)[C@@H](C)O[C@@H](OC(C)(C)[C@H]2CC=C(C)CC2)[C@@H]1OC(C)=O`, the IC50 stood at 11.5 µM.
With `CC[C@H](C)C(=O)O[C@@H]1[C@H](O)[C@@H](OC(C)=O)[C@H](OC(C)(C)[C@H]2CC=C(C)CC2)O[C@@H]1C`, the IC50 worked out at 39.7 µM.
